In PubChem BioAssay AID330 (DTP/NCI, 2004):
“And” between values parts separate entries of the source, which are not always exact repeats. Equal values may be shown once. Toxic doses and inconclusive results are not listed.

Test system: P388 leukemia ip, CD2F1 mice, survival T/C
Assay: NCI In Vivo Anticancer Drug Screen. Data for tumor model P388 Leukemia (intraperitoneal) in CD2F1 (CDF1) mice
Details: endpoint: median survival time, higher = longer survival
Method in brief: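 Mice carrying the transplanted tumor received test compound or vehicle. Survival was recorded in each group, and the value is the treated-group measurement divided by that of the vehicle-treated control group.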

[1] = dose: 50.0 mg/kg/injection, schedule: Q01DX005 (ip), vehicle: saline with Tween-80
[2] = dose: 100.0 mg/kg/injection, schedule: Q01DX005 (ip), vehicle: saline with Tween-80
[3] = dose: 200.0 mg/kg/injection, schedule: Q01DX005 (ip), vehicle: saline with Tween-80
[4] = dose: 50.0 mg/kg/injection, schedule: Q01DX009 (ip), vehicle: saline
[5] = dose: 100.0 mg/kg/injection, schedule: Q01DX009 (ip), vehicle: saline
[6] = dose: 200.0 mg/kg/injection, schedule: Q01DX009 (ip), vehicle: saline
[7] = dose: 100.0 mg/kg/injection, schedule: Q01DX009 (ip), vehicle: Klucel (hydroxypropylcellulose) (HPC)
[8] = dose: 200.0 mg/kg/injection, schedule: Q01DX009 (ip), vehicle: Klucel (hydroxypropylcellulose) (HPC)
[9] = dose: 50.0 mg/kg/injection, schedule: Q01DX005 (ip), vehicle: Klucel (hydroxypropylcellulose) (HPC)
[10] = dose: 100.0 mg/kg/injection, schedule: Q01DX005 (ip), vehicle: Klucel (hydroxypropylcellulose) (HPC)

SMILES: COc1cccc2c1C(=N)c1c(O)c3c(c(O)c1C2=O)C[C@@](O)(C(O)CO)C[C@@H]3OC1CC(N2CCOCC2)C(O)C(C)O1 (stereo not given in full)
- T/C (dose: 3.12 mg/kg/injection, schedule: Q04DX003 (ip), vehicle: water): 112 % of control and 115 % of control
- T/C (dose: 6.25 mg/kg/injection, schedule: Q04DX003 (ip), vehicle: water): 118 % of control
- T/C (dose: 12.5 mg/kg/injection, schedule: Q04DX003 (ip), vehicle: water): 108 % of control and 120 % of control
- T/C (dose: 18.7 mg/kg/injection, schedule: Q04DX003 (ip), vehicle: water): 105 % of control
- T/C (dose: 50.0 mg/kg/injection, schedule: Q04DX003 (ip), vehicle: water): 115 % of control and 161 % of control and 221 % of control
- T/C (dose: 75.0 mg/kg/injection, schedule: Q04DX003 (ip), vehicle: water): 118 % of control

SMILES: C[C@]12CC[C@@H]3c4ccc(O)c(N)c4CC[C@H]3[C@@H]1CC[C@@H]2O
- T/C (dose: 12.5 mg/kg/injection, schedule: Q01DX005 (ip), vehicle: saline with Tween-80): 93 % of control
- T/C (dose: 25.0 mg/kg/injection, schedule: Q01DX005 (ip), vehicle: saline with Tween-80): 88 % of control
- T/C [1]: 94 % of control
- T/C [2]: 90 % of control
- T/C [3]: 90 % of control

SMILES: CCCCCCCCCCCCCC#CC(=O)OC
- T/C [4]: 104 % of control
- T/C [5]: 106 % of control
- T/C [6]: 106 % of control

SMILES: NOCc1ccccc1
- T/C [7]: 93 % of control
- T/C [8]: 86 % of control

SMILES: Cn1c(=O)c2[nH]c(Cc3cccc(O)c3)nc2n(C)c1=O
- T/C (dose: 25.0 mg/kg/injection, schedule: Q01DX009 (ip), vehicle: suspension in saline): 99 % of control
- T/C (dose: 50.0 mg/kg/injection, schedule: Q01DX009 (ip), vehicle: suspension in saline): 96 % of control
- T/C (dose: 100.0 mg/kg/injection, schedule: Q01DX009 (ip), vehicle: suspension in saline): 92 % of control and 93 % of control
- T/C (dose: 200.0 mg/kg/injection, schedule: Q01DX009 (ip), vehicle: suspension in saline): 104 % of control
- T/C (dose: 400.0 mg/kg/injection, schedule: Q01DX009 (ip), vehicle: suspension in saline): 91 % of control

SMILES: C=C(Br)C(=NC(C)(C)C)Nc1ccccc1Cl
- T/C (dose: 6.25 mg/kg/injection, schedule: Q01DX005 (ip), vehicle: Klucel (hydroxypropylcellulose) (HPC)): 98 % of control
- T/C (dose: 12.5 mg/kg/injection, schedule: Q01DX005 (ip), vehicle: Klucel (hydroxypropylcellulose) (HPC)): 109 % of control
- T/C (dose: 25.0 mg/kg/injection, schedule: Q01DX005 (ip), vehicle: Klucel (hydroxypropylcellulose) (HPC)): 111 % of control and 120 % of control and 118 % of control
- T/C [9]: 118 % of control
- T/C [10]: 110 % of control

SMILES: CCNCC(=O)Nc1ccc(C2NC(=O)C(C)(C)c3ccccc32)cc1 (stereo not given)
- T/C [4]: 99 % of control
- T/C [5]: 101 % of control
- T/C [6]: 97 % of control

SMILES: COc1ccc(C(=O)c2ccccc2)c(C(=O)O)c1
- T/C [9]: 101 % of control
- T/C [10]: 97 % of control
- T/C (dose: 200.0 mg/kg/injection, schedule: Q01DX005 (ip), vehicle: Klucel (hydroxypropylcellulose) (HPC)): 104 % of control

SMILES: CCCCCCCCCCCCOC(=O)C(N)Cc1ccc(O)cc1 (stereo not given)
- T/C (dose: 50.0 mg/kg/injection, schedule: Q01DX009 (ip), vehicle: Klucel (hydroxypropylcellulose) (HPC)): 98 % of control
- T/C [7]: 102 % of control
- T/C [8]: 97 % of control

SMILES: NC1(C(=O)NCSc2ccccc2)CC=CCC1 (stereo not given)
- T/C (dose: 45.5 mg/kg/injection, schedule: Q01DX005 (ip), vehicle: Klucel (hydroxypropylcellulose) (HPC)): 97 % of control
- T/C (dose: 91.0 mg/kg/injection, schedule: Q01DX005 (ip), vehicle: Klucel (hydroxypropylcellulose) (HPC)): 103 % of control
- T/C (dose: 182.0 mg/kg/injection, schedule: Q01DX005 (ip), vehicle: Klucel (hydroxypropylcellulose) (HPC)): 96 % of control

SMILES: CNC(=O)Nc1cc2ccccc2o1
- T/C (dose: 100.0 mg/kg/injection, schedule: Q04DX003 (ip), vehicle: saline with Tween-80): 110 % of control
- T/C (dose: 200.0 mg/kg/injection, schedule: Q04DX003 (ip), vehicle: saline with Tween-80): 100 % of control
- T/C (dose: 400.0 mg/kg/injection, schedule: Q04DX003 (ip), vehicle: saline with Tween-80): 105 % of control

SMILES: CCN(CC)C1CC(O[C@H]2C[C@](O)(C(=O)CO)Cc3c(O)c4c(c(O)c32)C(=O)c2c(OC)cccc2C4=O)OC(C)C1O (stereo not given in full)
- T/C (dose: 1.56 mg/kg/injection, schedule: Q01DX009 (ip), vehicle: water): 153 % of control
- T/C (dose: 3.13 mg/kg/injection, schedule: Q01DX009 (ip), vehicle: water): 165 % of control and 178 % of control

SMILES: CCOc1ccc(/C=N/NC(=O)c2c(-c3ccccc3)noc2C)cc1
- T/C [1]: 86 % of control
- T/C [2]: 91 % of control
- T/C [3]: 97 % of control

SMILES: NCCC(=O)NCCSSCCNC(=O)CCN
- T/C (dose: 100.0 mg/kg/injection, schedule: Q04DX003 (ip), vehicle: saline): 112 % of control
- T/C (dose: 200.0 mg/kg/injection, schedule: Q04DX003 (ip), vehicle: saline): 111 % of control

SMILES: C[n+]1c(/C=C/c2ccccc2Cl)ccc2ccccc21
- T/C (dose: 12.5 mg/kg/injection, schedule: Q01DX009 (ip), vehicle: saline with Tween-80): 94 % of control
- T/C (dose: 25.0 mg/kg/injection, schedule: Q01DX009 (ip), vehicle: saline with Tween-80): 100 % of control
- T/C (dose: 50.0 mg/kg/injection, schedule: Q01DX009 (ip), vehicle: saline with Tween-80): 94 % of control

SMILES: COC(=O)c1c(-c2ccccc2)c(-c2ccccc2)nn(-c2ccccc2)c1=O
- T/C (dose: 50.0 mg/kg/injection, schedule: Q01DX001 (ip), vehicle: saline with Tween-80): 100 % of control and 102 % of control
- T/C (dose: 100.0 mg/kg/injection, schedule: Q01DX001 (ip), vehicle: saline with Tween-80): 99 % of control and 100 % of control
- T/C (dose: 200.0 mg/kg/injection, schedule: Q01DX001 (ip), vehicle: saline with Tween-80): 92 % of control and 97 % of control
- T/C (dose: 400.0 mg/kg/injection, schedule: Q01DX001 (ip), vehicle: saline with Tween-80): 87 % of control and 90 % of control

SMILES: O=c1ssc2ncccc12
- T/C (dose: 60.0 mg/kg/injection, schedule: Q01DX005 (ip), vehicle: saline with Tween-80): 104 % of control
- T/C (dose: 120.0 mg/kg/injection, schedule: Q01DX005 (ip), vehicle: saline with Tween-80): 103 % of control
- T/C (dose: 240.0 mg/kg/injection, schedule: Q01DX005 (ip), vehicle: saline with Tween-80): 117 % of control

SMILES: COc1cccc(-c2nnc(-n3cc(-c4ccccc4)cc3N)s2)c1
- T/C (dose: 50.0 mg/kg/injection, schedule: Q01DX001 (ip), vehicle: Klucel (hydroxypropylcellulose) (HPC)): 104 % of control
- T/C (dose: 100.0 mg/kg/injection, schedule: Q01DX001 (ip), vehicle: Klucel (hydroxypropylcellulose) (HPC)): 95 % of control
- T/C (dose: 200.0 mg/kg/injection, schedule: Q01DX001 (ip), vehicle: Klucel (hydroxypropylcellulose) (HPC)): 89 % of control

SMILES: OC1OC2COC(c3ccccc3)OC2C(O)C1O (stereo not given)
- T/C (dose: 25.0 mg/kg/injection, schedule: Q01DX005 (ip), vehicle: water): 100 % of control
- T/C (dose: 50.0 mg/kg/injection, schedule: Q01DX005 (ip), vehicle: water): 100 % of control
- T/C (dose: 100.0 mg/kg/injection, schedule: Q01DX005 (ip), vehicle: water): 100 % of control
- T/C (dose: 200.0 mg/kg/injection, schedule: Q01DX005 (ip), vehicle: water): 101 % of control
- T/C (dose: 400.0 mg/kg/injection, schedule: Q01DX005 (ip), vehicle: water): 107 % of control
- T/C (dose: 800.0 mg/kg/injection, schedule: Q01DX005 (ip), vehicle: water): 95 % of control

SMILES: COC(=O)C(C/C(=C/NC(=O)c1ccccc1)NC(=O)c1ccccc1)NC(=O)c1ccccc1 (stereo not given)
- T/C [1]: 98 % of control
- T/C [2]: 98 % of control
- T/C [3]: 100 % of control

SMILES: CCOc1c(N=Nc2ccc(Br)cc2)c(C)nn1C(=S)SC
- T/C (dose: 60.0 mg/kg/injection, schedule: Q01DX005 (ip), vehicle: Klucel (hydroxypropylcellulose) (HPC)): 93 % of control
- T/C (dose: 120.0 mg/kg/injection, schedule: Q01DX005 (ip), vehicle: Klucel (hydroxypropylcellulose) (HPC)): 92 % of control
- T/C (dose: 240.0 mg/kg/injection, schedule: Q01DX005 (ip), vehicle: Klucel (hydroxypropylcellulose) (HPC)): 98 % of control

SMILES: Cc1cnc(F)nc1F
- T/C (dose: 50.0 mg/kg/injection, schedule: Q01DX005 (ip), vehicle: saline): 94 % of control
- T/C (dose: 100.0 mg/kg/injection, schedule: Q01DX005 (ip), vehicle: saline): 97 % of control

SMILES: CC(=O)OC1(OC(C)=O)C=C2OCOC2=CC1=O
- T/C (dose: 8.75 mg/kg/injection, schedule: Q01DX005 (ip), vehicle: Klucel (hydroxypropylcellulose) (HPC)): 91 % of control
- T/C (dose: 17.5 mg/kg/injection, schedule: Q01DX005 (ip), vehicle: Klucel (hydroxypropylcellulose) (HPC)): 103 % of control

SMILES: N#CCCC12CCC(=O)N1Cc1ccccc1C2=O (stereo not given)
- T/C (dose: 60.0 mg/kg/injection, schedule: Q01DX005 (ip), vehicle: saline): 105 % of control
- T/C (dose: 120.0 mg/kg/injection, schedule: Q01DX005 (ip), vehicle: saline): 123 % of control
- T/C (dose: 240.0 mg/kg/injection, schedule: Q01DX005 (ip), vehicle: saline): 123 % of control
